Results on twelve molecules are retold here after ChEMBL document CHEMBL1201862, “PubChem BioAssay data set” (2004).

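Five compound concentrations were applied to cells in 96-well plates for 48 hours; endpoints were derived by simple linear interpolation of the resulting dose-response curve. Here, GI50 denotes the concentration required for 50% inhibition of growth.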 Calls of active or inactive are those of the source. Rule as the data show it: active = GI50 up to about 1.1 µM and inactive = higher. A value given as a limit tells only on which side of the number the result lay.

Among the test systems are HL-60; HOP-62; RXF 393; HCT-15; A549; NCI-H226; OVCAR-8; A498; SNB-75; 786-0; NCI/ADR-RES; U-251; HCC 2998; SK-OV-3; NCI-H23; SN12C; CCRF-CEM; OVCAR-4.
Test in all cases: growth of human tumour cells (NCI), 48 h

As to `COc1ccccc1NC(=S)Nc1cc(C)cc(C)n1`, the GI50 in the experiment with HL-60 was > 100 µM (inactive); with HOP-62, > 63 µM (inactive); in the experiment on RXF 393, > 100 µM (inactive); in the experiment with HCT-15, above 100 µM; in the experiment on A549 it was > 100 µM (inactive); in the experiment on NCI-H226, > 100 µM (inactive). Moreover, the GI50 in the experiment with OVCAR-8 is > 100 µM (inactive); with A498, > 100 µM (inactive); in the experiment on SNB-75 it was > 49.4 µM (inactive); in the experiment on 786-0 it was > 100 µM (inactive); in the experiment with NCI/ADR-RES, > 100 µM (inactive); with U-251 it was > 100 µM (inactive). Moreover, the GI50 in the experiment on HCC 2998, in the experiment on SK-OV-3, in the experiment on NCI-H23, in the experiment on SN12C, in the experiment with CCRF-CEM and in the experiment on OVCAR-4 was > 100 µM (inactive) throughout.

For the molecule `O=[N+]([O-])c1ccc(CSc2nn(Cc3ccc([N+](=O)[O-])cc3)cc3ncnc2-3)cc1`, the GI50 is 21.5 µM (inactive) with HL-60; 31.8 µM (inactive) in the experiment on HOP-62; 43.1 µM in the experiment with HCT-15; 39 µM (inactive) with A549; 38.4 µM (inactive) in the experiment with NCI-H226; 33.2 µM (inactive) in the experiment on OVCAR-8. Besides, the GI50 with A498 is 18.4 µM (inactive); with SNB-75 it was 34.1 µM (inactive); with 786-0, 47.5 µM (inactive); with NCI/ADR-RES, 44 µM (inactive); in the experiment on U-251, > 10 µM (inactive); with HCC 2998, 35.6 µM (inactive). For the same molecule, the GI50 with SK-OV-3 is > 100 µM (inactive); in the experiment with NCI-H23 it was 26.4 µM (inactive); in the experiment on SN12C, 57.4 µM (inactive); in the experiment with CCRF-CEM, > 10 µM (inactive); with OVCAR-4, 52.5 µM (inactive).

In the case of `N#CCCN(C(=O)Nc1ccccc1)[C@H]1CCCC[C@@H]1N(C(=O)Nc1ccccc1)c1ccccc1`, the GI50 in the experiment on HOP-62 was > 100 µM (inactive); with RXF 393, 35.6 µM (inactive); in the experiment with HCT-15, above 100 µM; in the experiment with A549, 58.1 µM (inactive); in the experiment with NCI-H226, 77.8 µM (inactive); in the experiment on OVCAR-8, > 100 µM (inactive). Besides, the GI50 is 16.7 µM (inactive) in the experiment with SNB-75; > 100 µM (inactive) in the experiment on 786-0; > 100 µM (inactive) in the experiment on NCI/ADR-RES; > 100 µM (inactive) with U-251; 73.3 µM (inactive) in the experiment with HCC 2998; > 100 µM (inactive) with SK-OV-3. In addition, the GI50 was > 100 µM (inactive) with NCI-H23, > 100 µM (inactive) with SN12C, 30.1 µM (inactive) with CCRF-CEM and 64.6 µM (inactive) in the experiment with OVCAR-4.

Consider `CCn1cnc2c(NC(C)=O)ncnc21`, for which the GI50 is > 100 µM (inactive) in the experiment on HOP-62; > 100 µM (inactive) with RXF 393; above 100 µM in the experiment with HCT-15; > 100 µM (inactive) in the experiment with A549; > 100 µM (inactive) with NCI-H226; > 100 µM (inactive) with OVCAR-8. Moreover, the GI50 in the experiment with SNB-75 was 1.33 µM (inactive); in the experiment on 786-0 it was > 100 µM (inactive); in the experiment with NCI/ADR-RES, > 100 µM (inactive); in the experiment on U-251, > 100 µM (inactive); in the experiment with HCC 2998, > 100 µM (inactive); in the experiment with SK-OV-3, > 100 µM (inactive). Moreover, the GI50 in the experiment with NCI-H23, in the experiment with SN12C, in the experiment with CCRF-CEM and in the experiment with OVCAR-4 was > 100 µM (inactive) throughout.

Take `CC(C)(C)c1cc(-c2cc(C(C)(C)C)n(-c3ccccc3)n2)nn1-c1ccccc1`: the GI50 was > 100 µM (inactive) with HL-60; > 100 µM (inactive) with HOP-62; > 100 µM (inactive) in the experiment with RXF 393; above 100 µM with HCT-15; > 100 µM (inactive) with A549; > 100 µM (inactive) in the experiment on NCI-H226. For the same molecule, the GI50 with OVCAR-8, with A498, with SNB-75, in the experiment on 786-0, in the experiment on NCI/ADR-RES and in the experiment with U-251 was > 100 µM (inactive) each time. Further, the GI50 is 31.3 µM (inactive) in the experiment on HCC 2998; > 100 µM (inactive) in the experiment with SK-OV-3; > 100 µM (inactive) in the experiment with NCI-H23; > 100 µM (inactive) with SN12C; > 100 µM (inactive) in the experiment on CCRF-CEM; > 100 µM (inactive) in the experiment with OVCAR-4.

With `Nn1c(S)nnc1-c1ccccc1Nc1ccccc1-c1nnc(S)n1N`, the GI50 in the experiment with HL-60 was > 50 µM (inactive); in the experiment on HOP-62 it was > 50 µM (inactive); in the experiment on RXF 393, > 50 µM (inactive); in the experiment with HCT-15 it was above 50 µM; in the experiment with NCI-H226, > 50 µM (inactive); with OVCAR-8 it was > 50 µM (inactive). Besides, the GI50 in the experiment on SNB-75, in the experiment on 786-0, in the experiment with NCI/ADR-RES, with U-251, in the experiment with HCC 2998 and in the experiment on NCI-H23 was > 50 µM (inactive) in each case. Further, the GI50 in the experiment on CCRF-CEM and in the experiment with OVCAR-4 was > 50 µM (inactive) in each case.

Regarding `Cn1cc(NC(=O)c2cc(NC(=O)CCCCCCCCCCC(=O)Nc3cc(C(=O)Nc4cc(C(=O)NCCC(=N)N)n(C)c4)n(C)c3)cn2C)cc1C(=O)NCCC(=N)N`, the GI50 in the experiment on HOP-62 was 25.9 µM (inactive); with RXF 393, 17.8 µM (inactive); in the experiment with HCT-15 it was 36.6 µM; in the experiment with A549 it was 22.2 µM (inactive); in the experiment on NCI-H226, > 100 µM (inactive); with OVCAR-8 it was 20.3 µM (inactive). Also, the GI50 in the experiment with SNB-75 is > 100 µM (inactive); in the experiment on 786-0, 23.6 µM (inactive); in the experiment with U-251, 33 µM (inactive); in the experiment with HCC 2998, 19 µM (inactive); in the experiment on SK-OV-3 it was > 100 µM (inactive); in the experiment on NCI-H23, 32 µM (inactive). Moreover, the GI50 with SN12C is 37.1 µM (inactive); in the experiment with CCRF-CEM, 50 µM (inactive); in the experiment on OVCAR-4, 41.4 µM (inactive).

On to `O=C1c2c(O)cc(O)cc2C(C2OC(CO)C(O)C(O)C2O)c2cc(CO)cc(O)c21` (centres undefined), for which the GI50 in the experiment with HL-60 was > 100 µM (inactive); in the experiment with HOP-62 it was > 100 µM (inactive); in the experiment on HCT-15, above 100 µM; in the experiment with A549, > 100 µM (inactive); in the experiment with NCI-H226 it was > 100 µM (inactive); in the experiment on OVCAR-8, > 100 µM (inactive). The GI50 in the experiment with A498 was > 100 µM (inactive); in the experiment with SNB-75, 22.5 µM (inactive); in the experiment on 786-0 it was > 100 µM (inactive); with NCI/ADR-RES, > 100 µM (inactive); with U-251, > 100 µM (inactive); with HCC 2998 it was > 100 µM (inactive). Further, the GI50 with SK-OV-3 was > 100 µM (inactive); in the experiment on NCI-H23 it was > 100 µM (inactive); in the experiment on SN12C, > 100 µM (inactive); in the experiment on CCRF-CEM, > 10 µM (inactive); in the experiment on OVCAR-4, > 100 µM (inactive).

Consider `CCCCCCc1cc(C=O)sc1-c1ccc(-c2sc(-c3ccc(-c4ccc(-c5cc(CCCCCC)c(-c6ccc(-c7sc(C=O)cc7CCCCCC)s6)s5)s4)s3)cc2CCCCCC)s1`, for which the GI50 is > 100 µM (inactive) in the experiment with HL-60; > 100 µM (inactive) with HOP-62; > 100 µM (inactive) with RXF 393; above 100 µM in the experiment with HCT-15; > 100 µM (inactive) in the experiment on A549; 28.4 µM (inactive) in the experiment with NCI-H226. The GI50 with OVCAR-8, in the experiment with A498, in the experiment on 786-0, in the experiment with NCI/ADR-RES, in the experiment on U-251 and with HCC 2998 was > 100 µM (inactive) each time. Further, the GI50 in the experiment on SK-OV-3, in the experiment with NCI-H23, in the experiment on SN12C, in the experiment with CCRF-CEM and with OVCAR-4 was > 100 µM (inactive) throughout.

Consider `Cn1c2ccccc2c2c3c(c4c5ccccc5n(C)c4c21)C(=O)N(c1ccccc1)C3=O`, for which the GI50 in the experiment on HOP-62 is > 100 µM (inactive); in the experiment with HCT-15, above 100 µM; with A549 it was > 100 µM (inactive); in the experiment on NCI-H226, > 100 µM (inactive); in the experiment with OVCAR-8, > 100 µM (inactive); with A498, > 100 µM (inactive). Moreover, the GI50 with SNB-75, in the experiment on 786-0, with NCI/ADR-RES, with U-251, in the experiment on HCC 2998 and in the experiment with SK-OV-3 was > 100 µM (inactive) each time. Moreover, the GI50 in the experiment with NCI-H23, in the experiment with SN12C, with CCRF-CEM and in the experiment on OVCAR-4 was > 100 µM (inactive) in each case.

For the molecule `CCSc1[nH]c(/N=C(/NC(=O)c2ccccc2)NC(C)C)c(C(N)=O)c1C(N)=O`, the GI50 was > 10 µM (inactive) in the experiment with HL-60; > 10 µM (inactive) in the experiment on RXF 393; above 10 µM in the experiment with HCT-15; > 10 µM (inactive) in the experiment on A549; > 10 µM (inactive) in the experiment on OVCAR-8; > 10 µM (inactive) in the experiment on SNB-75. Also, the GI50 in the experiment with 786-0, in the experiment on HCC 2998, in the experiment with SK-OV-3, with NCI-H23, with SN12C and with CCRF-CEM was > 10 µM (inactive) each time. Besides, the GI50 in the experiment with OVCAR-4 is > 10 µM (inactive).

In the case of `CC(=O)/N=C1\NC(=O)/C(=C/c2ccc(/C=C3/C(=O)N/C(=N\C(C)=O)N3C)cc2)N1C`, the GI50 in the experiment on HL-60 is 47.3 µM (inactive); with HOP-62, > 100 µM (inactive); with RXF 393 it was > 100 µM (inactive); in the experiment on HCT-15, above 100 µM; in the experiment with A549 it was > 100 µM (inactive); with NCI-H226, > 100 µM (inactive). The GI50 in the experiment with OVCAR-8, with A498, with SNB-75, in the experiment with 786-0, in the experiment with NCI/ADR-RES and in the experiment with U-251 was > 100 µM (inactive) throughout. For the same molecule, the GI50 in the experiment with HCC 2998, with SK-OV-3, in the experiment on NCI-H23, in the experiment with SN12C and in the experiment on OVCAR-4 was > 100 µM (inactive) throughout.
